From US20030039672A1, “Cosmetic composition and method of treating skin” (Unilever Home & Personal Care USA, Division of Conopco, Inc., priority 2001, published 2003)

Assays:
Assay type in all cases: cell-based
[1] = tested on: decorin synthesis in human dermal fibroblasts; assay: Dot blot assay for decorin protein in dermal fibroblast conditioned medium; conditions: for Decorin Level: 24 hours, relative to vehicle treated control value of 100
Method: (§1) Primary human foreskin fibroblasts at passage 2 (P2) were seeded into 12-well plates at 10000 cells/cm^2 and maintained for 24 hours in an atmosphere of 5% carbon dioxide and 4% oxygen in Dulbeccos Modified Eagles Medium (DMEM) supplemented with 10% foetal calf serum. After this time the cells were washed with serum free DMEM and then incubated in fresh serum free DMEM for a further 60 hours. The fibroblast monolayers were then washed again with serum free DMEM. Test reagents and vehicle controls were added to the cells in triplicate in a final volume of 0.4 ml/well fresh serum free DMEM and incubated for a further 24 hours. This fibroblast conditioned medium was either analysed immediately or snap frozen in liquid nitrogen and stored at −70° C. for future analysis. The cells were then counted and data from the dot-blot analysis subsequently standardised to cell number.
(§2) Samples of conditioned medium from dermal fibroblasts treated with vehicle (as a control) or test reagents were supplemented with 20 mM dithiothreitol (1:10 dilution of 200 mM stock solution) and 0.1% sodium dodecylsulphate (1:100 dilution of 10% stock solution), mixed well and then incubated at 75° C. for 2 minutes. A standard for the assay was generated by serial dilution of neat fibroblast conditioned medium from fibroblasts seeded at 10000 cells/cm^2 in a 175 cm^2 flask and maintained in serum free DMEM as described above. […]
(§3) Following this the Immobilon strips were again washed with TBS/Tween 20 (3×5 minutes) before being allowed to dry in air at room temperature. […] Dot intensity was assessed by computer-assisted image analysis using the quantification tools in ImageQuant™, standardised to cell number and the effects of various test reagents on decorin and procollagen-I synthesis were determined relative to a vehicle treated control value of 100 arbitrary units.
(§4) In order to normalise the results the effects of the test substance was determined relative to a vehicle treated control value of 100 arbitrary units.

[2] = tested on: procollagen-I synthesis in human dermal fibroblasts; assay: Dot blot assay for procollagen-I protein in dermal fibroblast conditioned medium; conditions: for Procollagen Level: 24 hours, relative to vehicle treated control value of 100
Method: as §1, §2, §3, §4

[3] = tested on: Human foreskin keratinocytes; assay: DNA concentration of keratinocyte extract (Pico Green DNA assay); conditions: 4 days of treatment
Method: (§5) Human foreskin keratinocytes at passage 3 (P3) were seeded into 96 well plates at 4000 cells/well in Dubleccos Modified Eagles Medium (DMEM), 0.03 mM calcium. The cells were grown for 3 days prior to treatment. The treatment vehicle was DMSO. After 4 days of treatment, the cells were harvested and washed three times with 100 μl phosphate buffered saline (PBS). The cells were then extracted in 1% Triton X100, 50 mM Tris pH 8.0, 0.02 mM Leupeptin, 0.02 mM Pepstatin. 60 il/well of extract was then assayed for DNA concentration (ng/well), Pico Green DNA assay, Molecular Probes.

[4] = tested on: Human foreskin keratinocytes; assay: Cornified envelope production in keratinocytes (silver-stained dot blot); conditions: for Cornified Envelope % Control / Cornified Envelope Mean: 4 days of treatment
Method: as §5
The cells were then washed in 200 μl PBS, and then 100 μl of 2% SDS, 20 mM DTT was added to each well. The plates were then sealed with a Titertek plate sealer (ICN) and incubated at 60° C. over night in an air tight damp environment (i.e. a sealed sandwich box lined with damp paper). The extract was then filtered through a PVDF transfer membrane (Bio-rad) under gravity using Dot-Blot apparatus (Bio-rad). The membrane is then washed in distilled water prior to silver staining (Bio-rad Silver Stain kit). The stained dot blot membrane is then analysed using Phoretix array software (Phoretix International).

[5] = human dermal fibroblasts, statement in words

`CC/C=C\C/C=C\C/C=C\CCCCCC(=O)O` [Hexadecatrienoic acid, hexadecatrienoic acid (C16:3(c7, c10, c13))] was tested, and the “Decorin Level” value ([1]; 1 μM) was 108.7 arbitrary units, the “Decorin Level” value ([1]; 10 μM) was 115.4 arbitrary units and the “synthesis of decorin as compared to the control” value [1, 5] was “significantly upregulates”. The “Procollagen Level” value ([2]; 1 μM) was 91.0 arbitrary units, the “Procollagen Level” value ([2]; 10 μM) was 184.2 arbitrary units and the “synthesis of procollagen-I as compared to the control” value [2, 5] was “significantly upregulates”. For the same molecule, the “DNA Results % Control” value ([3]; 0.1 μM) was 59 % Control, the “DNA Results Mean” value ([3]; 0.1 μM) was 0.98 ng/well and the “DNA Results % Control” value ([3]; 0.5 μM) was 89 % Control. The “DNA Results Mean” value ([3]; 0.5 μM) was 1.48 ng/well, the “DNA Results % Control” value ([3]; 1 μM) was 76 % Control and the “DNA Results Mean” value ([3]; 1 μM) was 1.27 ng/well. The “DNA Results % Control” value ([3]; 10 μM) was 68 % Control, the “DNA Results Mean” value ([3]; 10 μM) was 1.13 ng/well and the “Cornified Envelope % Control” value ([4]; 0.1 μM) was 98 % Control. The “Cornified Envelope Mean” value ([4]; 0.1 μM) was 17617, the “Cornified Envelope % Control” value ([4]; 0.5 μM) was 133 % Control and the “Cornified Envelope Mean” value ([4]; 0.5 μM) was 24009. The “Cornified Envelope % Control” value ([4]; 1 μM) was 200 % Control, the “Cornified Envelope Mean” value ([4]; 1 μM) was 36017 and the “Cornified Envelope % Control” value ([4]; 10 μM) was 227 % Control. For the same molecule, the “Cornified Envelope Mean” value ([4]; 10 μM) was 40997 and the cornified envelope production ([4]; 1-10 μM application, statement in words) was “increased”.
